Assay results: ChEMBL document CHEMBL1201862, “PubChem BioAssay data set” (2004)
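1) Cells in 96-well plates. 2) Compound, 48 h, 5 concentrations. 3) Linear interpolation between surrounding doses. 4) Unreached endpoint = highest concentration. GI50 marks 50% less growth.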 Calls of active or inactive are those of the source. Rule as the data show it: active = GI50 up to about 1.1 µM and inactive = higher.

Experiments:
Experiment in all cases: DTP human tumour cell line panel, 48 h
[1] = tested on: Malme-3M
[2] = tested on: MDA-MB-435
[3] = tested on: RPMI-8226
[4] = tested on: HT-29
[5] = tested on: SF-295
[6] = tested on: LOX IMVI
[7] = tested on: UACC-62
[8] = tested on: SN12C
[9] = tested on: MDA-N
[10] = tested on: CAKI-1
[11] = tested on: OVCAR-4
[12] = tested on: SF-539
[13] = tested on: EKVX
[14] = tested on: HCT-116
[15] = tested on: MOLT-4
[16] = tested on: OVCAR-3
[17] = tested on: A498
[18] = tested on: NCI-H460
[19] = tested on: COLO 205
[20] = tested on: U-251

With `Cc1cc(-c2nc3ccccc3s2)ccc1N` the GI50 [1] was 64.3 µM (inactive), the GI50 [2] was 56.9 µM (inactive) and the GI50 [3] was 9.79 µM (inactive). The GI50 [4] was 40.3 µM (inactive), the GI50 [5] was 43 µM (inactive) and the GI50 [6] was 31.6 µM (inactive). For the same compound, the GI50 [7] was 46.1 µM (inactive), the GI50 [8] was 32.9 µM (inactive) and the GI50 [9] was 60.7 µM (inactive). For the same compound, the GI50 [10] was 43.7 µM (inactive), the GI50 [11] was 4.98 µM (inactive) and the GI50 [12] was > 71.1 µM (inactive). For the same compound, the GI50 [13] was 26.6 µM (inactive), the GI50 [14] was 46.7 µM (inactive) and the GI50 [15] was 13.5 µM (inactive). The GI50 [16] was 35.9 µM (inactive), the GI50 [17] was 4.34 µM (inactive) and the GI50 [18] was 27.2 µM (inactive). For the same compound, the GI50 [19] was 40.7 µM (inactive) and the GI50 [20] was 45 µM (inactive).
In the case of `O=[N+]([O-])c1ccc(S(=O)(=O)Cc2ccccc2)c([N+](=O)[O-])c1`, the GI50 [1] is reported as 2.91 µM (inactive), the GI50 [2] is reported as 1.75 µM (inactive) and the GI50 [3] is reported as 1.4 µM (inactive). The GI50 [4] was 2.18 µM (inactive), the GI50 [5] was 16.6 µM (inactive) and the GI50 [6] was 1.79 µM (inactive). The GI50 [7] was 2.24 µM (inactive), the GI50 [8] was 1.91 µM (inactive) and the GI50 [9] was 1.96 µM (inactive). The GI50 [10] was 1.72 µM (inactive), the GI50 [11] was 2.2 µM (inactive) and the GI50 [12] was 1.99 µM (inactive). The GI50 [13] was 1.87 µM (inactive), the GI50 [14] was 1.87 µM (inactive) and the GI50 [15] was 0.139 µM (active). For the same compound, the GI50 [16] was 1.44 µM (inactive), the GI50 [17] was 15.6 µM (inactive) and the GI50 [18] was 5.12 µM (inactive). For the same compound, the GI50 [19] was 1.79 µM (inactive) and the GI50 [20] was 2.23 µM (inactive).
With `O=c1[nH]/c(=C/c2ccc(OCc3ccccc3)cn2)c(=O)[nH]/c1=C/c1ccc(Cl)cc1` the GI50 [1] was 0.624 µM (active), the GI50 [2] was 0.21 µM (active) and the GI50 [3] was 3.81 µM (inactive). The GI50 [4] was 2.8 µM (inactive), the GI50 [5] was 0.692 µM (active) and the GI50 [6] was > 22.1 µM (inactive). The GI50 [7] was 1.94 µM (inactive), the GI50 [8] was 48.3 µM (inactive) and the GI50 [9] was 0.215 µM (active). The GI50 [10] was 0.45 µM (active), the GI50 [11] was 2.42 µM (inactive) and the GI50 [12] was 3.08 µM (inactive). For the same compound, the GI50 [13] was > 100 µM (inactive), the GI50 [15] was 1.52 µM (inactive) and the GI50 [16] was 0.653 µM (active). For the same compound, the GI50 [17] was 0.7 µM (active), the GI50 [18] was 1.79 µM (inactive) and the GI50 [19] was 11.9 µM (inactive). The GI50 [20] was 4.35 µM (inactive).
